Source: PMC4489319 (ACS Infectious Diseases, 2015)

Assays:
[1] = target: ChsE4-ChsE5 (Mycobacterium tuberculosis, UniProt I6YCA3)
[2] = target: T1, ChsE4 (Rv3504, formerly FadE26), N-terminal His6 tag (Mycobacterium tuberculosis H37Rv, UniProt I6YCA3 1-400); test: AUC + other: LC/UV/MS
T1 sequence: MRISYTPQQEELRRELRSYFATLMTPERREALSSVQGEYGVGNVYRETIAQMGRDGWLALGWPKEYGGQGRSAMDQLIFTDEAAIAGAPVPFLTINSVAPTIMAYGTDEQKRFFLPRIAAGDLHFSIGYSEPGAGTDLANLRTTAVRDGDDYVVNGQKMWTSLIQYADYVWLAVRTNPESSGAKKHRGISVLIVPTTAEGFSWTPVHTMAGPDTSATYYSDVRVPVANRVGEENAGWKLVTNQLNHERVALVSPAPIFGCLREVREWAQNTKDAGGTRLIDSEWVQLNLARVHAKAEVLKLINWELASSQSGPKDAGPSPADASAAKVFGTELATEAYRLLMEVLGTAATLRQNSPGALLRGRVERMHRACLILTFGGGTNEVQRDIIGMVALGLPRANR

Molecule	KM [1]	binding result [2]
CC(CCC[C@@H](C)[C@H]1CC[C@H]2[C@@H]3CCC4=CC(=O)CC[C@]4(C)[C@H]3CC[C@]12C)C(=O)SCCNC(=O)CCNC(=O)[C@H](O)C(C)(C)COP(=O)(O)OP(=O)(O)OC[C@H]1O[C@@H](n2cnc3c(N)ncnc32)[C@H](O)[C@@H]1OP(=O)(O)O (some centres unmarked) [3-OCS-CoA]	20 ± 2.7 µM	–
ChsE5 (Rv3505, formerly FadE27) (enzyme) MDFTTTEAAQDLGGLVDTIVDAVCTPEHQRELDKLEQRFDRELWRKLIDAGILSSAAPESLGGDGFGVLEQVAVLVALGHQLAAVPYLESVVLAAGALARFGSPELQQGWGVSAVSGDRILTVALDGEMGEGPVQAAGTGHGYRLTGTRTQVGYGPVADAFLVPAETDSGAAVFLVAAGDPGVAVTALATTGLGSVGHLELNGAKVDAARRVGGTDVAVWLGTLSTLSRTAFQLGVLERGLQMTAEYARTREQFDRPIGSFQAVGQRLADGYIDVKGLRLTLTQAAWRVAEDSLASRECPQPADIDVATAGFWAAEAGHRVAHTIVHVHGGVGVDTDHPVHRYFLAAKQTEFALGGATGQLRRIGRELAETPA	–	binds
